One test concerns LNCaP tumors. Nature of the test: In vivo LNCaP tumor model, subcutaneous Compounds 16, 17, 18. Particulars: for tumor response (in words): 1 and 3 mg/kg s.c. Also on record: species or system ncr nude male mice. On the procedure: Ncr nude male mice, age 5 to 6 weeks, were injected in the right flank with 5×10^6 LNCaP cells in Matrigel™ (0.1 ml total injection volume). Two weeks following cell injection, daily s.c. injections of Compound 16, Compound 17, and Compound 18 were initiated at the following doses: 1 and 3 mg/kg. Controls received 50 mM HEPES s.c. daily. Once tumors were palpable they were measured twice a week.
Response to treatment was monitored in two ways. First, mean tumor volume for each group was presented as tumor:control ratio (% T/C) and these values were compared at one point in time. Second, tumor volume versus time was monitored.

In the next test the target is T1, NAALADase (Rattus norvegicus, UniProt P70627).
T1 construct: synaptosomal protein; from tissue; host or cells: synaptosomes (brain tissue)
Nature of the test: In vitro inhibition of NAALADase activity. The format is biochemical. From the text: "Inhibition", in the context of enzymes, refers to reversible enzyme inhibition such as competitive, uncompetitive and non-competitive inhibition. Competitive, uncompetitive and non-competitive inhibition can be distinguished by the effects of an inhibitor on the reaction kinetics of an enzyme. […] The affinity between the inhibitor and the enzyme may be measured by the inhibitor constant, Ki, which is defined as: [formula] wherein [E] is the concentration of the enzyme, [I] is the concentration of the inhibitor, and [EI] is the concentration of the enzyme-inhibitor complex formed by the reaction of the enzyme with the inhibitor. Unless otherwise specified, Ki as used herein refers to the affinity between the inventive compounds and NAALADase.
Various compounds of formula I were tested for in vitro inhibition of NAALADase activity.
Substrate and product were resolved by anion-exchange liquid chromatography. […] Quisqualate (100 μM) was included in parallel assay tubes to confirm the specificity of the measurements.

Test [1] has as its system cortical cell cultures. Put plainly: In vitro ischemia assay (KCN/2-DG) in cortical cell cultures. The conditions noted are these: Rattus norvegicus, 1 h, read-out: EC50 (50% reduction in glutamate toxicity following an ischemic insult); KCN/2-DG insult, compound during insult and one hour thereafter. Type of test: cell-based, rat.
Test [2] deals with cortical cell cultures. Nature of the test: In vitro toxicity of NAAG in cortical cell cultures. Type of test: cell-based. The conditions noted are these: Rattus norvegicus, 20 min. On the procedure:
Experiments are performed after 21 days in cultures.
At the end of exposure, the cells are washed once with HEPES buffered saline solution and then replaced with serum free modified Earle's basal medium. The cultures are then returned to the CO2 incubator for 24 hour recovery.
This control measurement is subtracted from each experimental point.

In a further test the test system is dopaminergic neurons. Put plainly: Parkinson's Disease model: MPTP lesioned mice. The format is in vivo, CD1 mice. The procedure:
To examine the effect of NAALADase inhibitors on Parkinson's Disease in vivo, MPTP lesioned mice were treated with 2-(phosphonomethyl)pentanedioicacid or a vehicle.
MPTP lesioning of dopaminergic neurons in mice was used as an animal model of Parkinson's Disease, as described by Steiner, Proc. Natl. Acad. Sci., Vol. 94, pp. 2019-2024 (March 1997). In brief, four week old male CD1 white mice were dosed IP with 30 mg/kg of MPTP for 5 days. […] At 18 days following MPTP treatment, the mice were sacrificed and their brains were removed and sectioned. Immunostaining was performed on saggital and coronal brain sections using anti-tyrosine hydroxylase (TH) antibodies to quantitate survival and recovery of dopaminergic neurons.

Test [3] deals with spinal cord organotypic cultures. Put plainly: ALS model: ChAT activity of spinal cord organotypic cultures with THA. Particulars: Rattus norvegicus, THA alone, 100 μM. Type of test: cell-based, rat. On the procedure: Organotypic cultures were prepared from lumbar spinal cord of 8 day old rats, as described by Rothstein et al., J. Neurochem., Vol. 65, No. 2 (1995), and Rothstein et al., Proc. Natl. Acad. Sci. USA, Vol. 90, pp. 6591-6595 (July 1993). In brief, lumbar spinal cords were removed and sliced into […]-thick-dorsal-ventral sections, and five slices were placed on Millipore CM semipermeable 30-mm-diameter membrane inserts. The inserts were placed on 1 ml of culture medium in 35-mm-diameter culture wells. Culture medium consisted of 50% minimal essential medium and phosphate-free HEPES (25 mM), 25% heat-inactivated horse serum, and 25 Hanks' balanced salt solution (GIBCO) supplemented with D-glucose (25.6 mg/ml) and glutamine (2 mM), at a final pH of 7.2. Antibiotic and antifungal agents were not used. Cultures were incubated at 37° C. in 5% CO2 containing humidified environment (Forma Scientific). Culture medium, along with any added pharmacological agents, was changed twice weekly.
Drugs were incubated for an additional 13 to 20 days with the 100 μM THA. At the end of this period, cultures were collected assayed for ChAT activity as described below.
To determine choline acetyltransferase (CHAT) activity, the spinal cord tissues in each dish (five slices) were pooled and frozen (-75° C.) until assay. CHAT activity was measured radiometrically by described methods using [^3 H]acetyl-CoA (Amersham; Fonnum, 1975). Protein content of tissue homogenate was determined by a Coomassi Protein Assay kit (Pierce, Rockford, Ill.).

Peptide text beside a SMILES is read from it.

One may read the Ki as a measure of affinity in units of concentration, obtained from inhibition or displacement. A higher Ki goes with weaker binding. A word on the EC50: it is the concentration at which the effect is half-maximal.

T1 sequence (P70627 whole entry): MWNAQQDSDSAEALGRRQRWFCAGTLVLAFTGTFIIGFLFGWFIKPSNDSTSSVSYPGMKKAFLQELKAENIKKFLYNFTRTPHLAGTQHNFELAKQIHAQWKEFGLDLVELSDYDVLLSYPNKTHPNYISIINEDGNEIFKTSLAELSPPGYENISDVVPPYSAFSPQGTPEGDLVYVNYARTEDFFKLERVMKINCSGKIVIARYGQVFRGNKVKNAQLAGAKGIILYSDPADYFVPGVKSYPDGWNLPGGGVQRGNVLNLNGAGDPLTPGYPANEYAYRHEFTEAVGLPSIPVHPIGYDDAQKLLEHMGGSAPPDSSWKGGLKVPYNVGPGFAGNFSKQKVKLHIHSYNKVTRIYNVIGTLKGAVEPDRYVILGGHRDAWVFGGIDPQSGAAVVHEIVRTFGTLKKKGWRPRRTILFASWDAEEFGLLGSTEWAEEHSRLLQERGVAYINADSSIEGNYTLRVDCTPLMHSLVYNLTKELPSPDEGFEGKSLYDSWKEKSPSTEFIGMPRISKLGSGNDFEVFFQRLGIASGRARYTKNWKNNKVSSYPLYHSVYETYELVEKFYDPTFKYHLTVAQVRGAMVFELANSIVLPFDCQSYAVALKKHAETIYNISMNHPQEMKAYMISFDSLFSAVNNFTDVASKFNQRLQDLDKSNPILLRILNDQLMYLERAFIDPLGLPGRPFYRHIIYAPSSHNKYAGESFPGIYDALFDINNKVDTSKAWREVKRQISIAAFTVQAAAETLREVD

As for “2-[[[hydroxy(pyridyl)methyl]hydroxyphosphinyl]methyl]pentanedioic acid [Compound 18]”, the “tumor size, % of control tumors” value with LNCaP tumors (1 mg/kg s.c.) is on record as 54 % of controls; with LNCaP tumors (3 mg/kg s.c.), 58 % of controls. In the test with LNCaP tumors, the “tumor response (in words)” value was “responded better”.

In turn, `Cc1ccc(NCP(=O)(O)CC(CCC(=O)O)C(=O)O)cc1` (stereo not shown) [drawing 31] displayed a Ki on NAALADase of 5.2 nM. The same measure, in the same setting: then `CC(C)(C)c1ccc(NCP(=O)(O)CC(CCC(=O)O)C(=O)O)cc1` (stereo not shown) [drawing 32], with 2 nM. As to `O=C(O)CCC(CP(=O)(O)Cc1c(F)c(F)c(F)c(F)c1F)C(=O)O` (stereo not shown) [Compound 16, 2-[[(pentafluorobenzyl)hydroxyphosphinyl]methyl]pentanedioic acid], the entries for the “tumor size, % of control tumors” value with LNCaP tumors (1 mg/kg s.c.) and in the test with LNCaP tumors (3 mg/kg s.c.) were 78 % of controls and 41.4 % of controls, respectively. Consider `Cc1ccc(NCP(=O)(O)CC(CCC(=O)O)C(=O)O)cc1` (stereo not shown) [drawing 41], for which the EC50 with cortical cell cultures [1] stood at 11.4 nM. `O=C(O)CCC(CP(=O)(O)C(NC(=O)O)c1ccccc1)C(=O)O` (stereo not shown) showed an inhibition constant (Ki) on NAALADase of 2000 nM. `O=C(O)CCC(CP(=O)(O)CNc1ccc(F)cc1)C(=O)O` (stereo not shown) [drawing 29]: at NAALADase, the Ki was 9 nM.

With `O=C(O)CCC(CP(=O)(O)Cc1cccc(C(F)(F)F)c1)C(=O)O` (stereo not shown) [Compound 17, 2-[[(3-trifluoromethylbenzyl)hydroxyphosphinyl]methyl]pentanedioic acid], the “tumor size, % of control tumors” value in the test with LNCaP tumors (1 mg/kg s.c.) is 74.1 % of controls; with LNCaP tumors (3 mg/kg s.c.) it was 82 % of controls. The “tumor response (in words)” value in the test on LNCaP tumors is reported as “responded minimally”. In the test on cortical cell cultures [2], `CC(=O)N[C@@H](CC(=O)O)C(=O)N[C@@H](CCC(=O)O)C(=O)O` [NAAG, N-acetyl-aspartyl-glutamate] (Ac-Asp-Glu-OH) had a cytotoxicity at 3 µM of 3.51%, a cytotoxicity at 10 µM of 4.3 ± 3.12%, a cytotoxicity at 30 µM of 11.4 ± 6.17% and a cytotoxicity at 100 µM of 12.7 ± 5.5%. In the test on cortical cell cultures [2], the cytotoxicity at 300 µM was 13.5 ± 4%, the cytotoxicity at 1000 µM came to 21.5 ± 4.2% and the cytotoxicity at 3000 µM was 45.1 ± 4.96%. Regarding `COc1ccc(NCP(=O)(O)CC(CCC(=O)O)C(=O)O)cc1` (stereo not shown) [drawing 30], the inhibitory constant (Ki) at NAALADase worked out at 2.5 nM. Still for that read-out and setting: then `O=C(O)CCC(CP(=O)(O)CNS(=O)(=O)c1ccccc1)C(=O)O` (stereo not shown), with 90 nM. With `O=C(O)CCC(CP(=O)(O)CNc1ccc(F)cc1)C(=O)O` (stereo not shown) [drawing 39], the concentration for a half-maximal effect (EC50) in the test with cortical cell cultures [1] was 3.1 nM. On the same count and under the same terms, then `O=C(O)CCC(CP(=O)(O)CNCc1ccccc1)C(=O)O` (stereo not shown), with 0.9 nM; and `CC(C)(C)c1ccc(NCP(=O)(O)CC(CCC(=O)O)C(=O)O)cc1` (stereo not shown) [drawing 42], with 34.6 nM. Take `CN1CC=C(c2ccccc2)CC1` [MPTP]: the “loss of functional dopaminergic terminals” value with dopaminergic neurons (MPTP and vehicle vs non-lesioned mice) is “approximately 68%”. In addition, the “Percent Striatal TH Innervation Density” value in the test on dopaminergic neurons (MPTP/vehicle, mean ± SEM) is listed as 7.82 ± 0.68%. The compound `N[C@H](C(=O)O)[C@H](O)C(=O)O` (relative stereo) [THA, threohydroxyaspartate] showed an activity at 100 µM in test [3] of 36 ± 12.1%. As for `O=C(O)CCC(CP(=O)(O)C(NCc1ccccc1)c1ccccc1)C(=O)O` (stereo not shown), in the test with cortical cell cultures [1], the EC50 worked out at 1 nM. In the case of `O=C(O)CCC(CP(=O)(O)CN1C(=O)c2ccccc2C1=O)C(=O)O` (stereo not shown), the Ki at NAALADase stood at 34.5 nM. As to `COc1ccc(NCP(=O)(O)CC(CCC(=O)O)C(=O)O)cc1` (stereo not shown) [drawing 40], the EC50 in the test on cortical cell cultures [1] is 9.5 nM.

Values taken from US6121252A, “Phosphinic acid derivatives” (priority 1998, dated 2000).
